Measurements as given in publication PMC2692672 (Journal of molecular biology, 2009).

Target: GRP94 (Canis lupus, UniProt P41148, DEL287-327)
Test: co-crystal structure
Assay type: binding

Compound COC(=O)c1c(O)cc(O)c(Cl)c1CCC(=O)NC1=CC(=O)C(OC)=CC1=O [Radamide] has a Kd of 520 ± 130 nM.
